Here are results for 15 compounds from ChEMBL document CHEMBL2424615, “Design, synthesis, and characterization of novel tetrahydropyran-based bacterial topoisomerase inhibitors with potent anti-gram-positive activity” (J Med Chem, 2013).

The target of one data set is hERG (KCNH2) (Homo sapiens, UniProt Q12809). The data set can be described thus: Inhibition of human ERG expressed in CHO cells at 10 uM after 3 mins by patch clamp assay relative to control. The data set is classed as cell-based. Particulars: CHO cells that express human ERG. (In general: The patch-clamp technique gives a direct electrical read-out from membranes.)

The target in another data set is DNA gyrase (Staphylococcus aureus, UniProt P0A0K8+P20831). As to the kind of experiment: Inhibition of wild type Staphylococcus aureus DNA gyrase subunit 2GyrA/2GyrB assessed as pBR322 supercoiling after 1 hr. The data set is classed as protein-complex assay.
Data set [1] deals with Staphylococcus aureus. The data set can be described thus: Antibacterial activity against NXL-101-resistant Staphylococcus aureus A-234 harboring DNA gyrase subunit A D83N mutant assessed as growth inhibition by broth microdilution method. The format is functional. (Dilution methods test growth across graded concentrations, often in twofold steps.)
The test system of the next data set is Escherichia coli. As to the kind of experiment: Antibacterial activity against wild type Escherichia coli ATCC 25922 assessed as growth inhibition by broth microdilution method. The format is functional.
Another data set deals with Pseudomonas aeruginosa. As to the kind of experiment: Antibacterial activity against wild type Pseudomonas aeruginosa ATCC 27853 assessed as growth inhibition by broth microdilution method. The data set is classed as functional.
A further data set relates to Streptococcus pneumoniae. The data set can be described thus: Antibacterial activity against wild type Streptococcus pneumoniae ATCC 49619 assessed as growth inhibition by broth microdilution method. The format is functional.
Data set [2] concerns Staphylococcus aureus. As to the kind of experiment: Antibacterial activity against wild type Staphylococcus aureus ATCC 29213 assessed as growth inhibition by broth microdilution method. The data set is classed as functional.
Data set [3] is described as follows: Inhibition of wild type Escherichia coli ATCC 25922 DNA gyrase subunit 2GyrA/2GyrB assessed as pBR322 supercoiling after 1 hr.
The nature of data set [4]: Inhibition of wild type Escherichia coli ATCC 25922 DNA topoisomerase-4 subunit 2ParC/2ParE assessed as pBR322 relaxation after 1 hr.
A further data set addresses Topoisomerase IV (Staphylococcus aureus, UniProt P0C1S7+P0C1U9). The data set can be described thus: Inhibition of wild type Staphylococcus aureus ATCC 29213 topoisomerase-4 subunit 2GrlA/2GrlB assessed as pBR322 relaxation after 1 hr. The format is protein-complex assay.

A value given as a limit tells only on which side of the number the result lay.

In general, inhibition refers to the relative decrease from the control value, in per cent. A low value points to little suppression. By IC50 is commonly meant the midpoint of a concentration-inhibition curve. As usually defined, the MIC is the lowest concentration that inhibits growth of the organism. `COc1cnc2ccc(F)c([C@@H](O)[C@H](O)[C@@H]3CC[C@@H](NCc4cc5c(cn4)OCCS5)CO3)c2n1`: the inhibition at 0.05 h, 10 µM on hERG (KCNH2) came out at 33%. Besides, the IC50 on DNA gyrase amounted to 0.03 µM; in [3] it was 8 µM; in data set [4] it was 0.125 µM; at Topoisomerase IV, 8 µM. The MIC with Staphylococcus aureus [1] was 2 mg/L; with Escherichia coli, 8 mg/L; in the data set on Pseudomonas aeruginosa, more than 8 mg/L; with Streptococcus pneumoniae it was 0.03 mg/L; with Staphylococcus aureus [2], not above 0.015 mg/L.

`COc1ccc2nccc(/C=C/[C@@H]3CC[C@@H](NCc4ccc5c(n4)NC(=O)CS5)CO3)c2n1` came in with an inhibition at 0.05 h, 10 µM at hERG (KCNH2) of 94%. Moreover, the IC50 on DNA gyrase worked out at 0.125 µM; in [3], 0.5 µM; in data set [4], 0.03 µM; at Topoisomerase IV, 2 µM. Besides, the MIC in the data set with Staphylococcus aureus [1] was 4 mg/L; in the data set with Escherichia coli, 4 mg/L; in the data set on Pseudomonas aeruginosa it was more than 8 mg/L; in the data set on Streptococcus pneumoniae, 1 mg/L; with Staphylococcus aureus [2], 0.125 mg/L.

On hERG (KCNH2), `COc1ccc2nccc(/C=C/[C@@H]3CC[C@@H](NCc4cc5c(cn4)OCCO5)CO3)c2n1` had an inhibition at 0.05 h, 10 µM of 88%. In addition, the IC50 is 0.125 µM on DNA gyrase, more than 8 µM in [3] and more than 8 µM on Topoisomerase IV. Besides, the MIC was more than 8 mg/L in the data set on Staphylococcus aureus [1]; more than 8 mg/L in the data set with Escherichia coli; more than 8 mg/L with Pseudomonas aeruginosa; 1 mg/L in the data set on Streptococcus pneumoniae; 0.25 mg/L in the data set on Staphylococcus aureus [2].

In the case of `COc1ccc2nccc(CC[C@@H]3CC[C@@H](NCc4cc5c(cn4)OCCO5)CO3)c2n1`, the inhibition at 0.05 h, 10 µM against hERG (KCNH2) came to 82%. Further, the IC50 is less than 0.03 µM at DNA gyrase, 8 µM in data set [3], 0.125 µM in data set [4] and more than 8 µM at Topoisomerase IV. The MIC was 4 mg/L with Staphylococcus aureus [1]; 8 mg/L with Escherichia coli; more than 8 mg/L with Pseudomonas aeruginosa; 0.5 mg/L in the data set on Streptococcus pneumoniae; 0.06 mg/L with Staphylococcus aureus [2].

In turn, `COc1ccc2nccc([C@@H](O)[C@H](O)[C@@H]3CC[C@@H](NCc4ccc5c(n4)NC(=O)CS5)CO3)c2n1` registered an inhibition at 0.05 h, 10 µM on hERG (KCNH2) of 36%. Moreover, the IC50 at DNA gyrase is less than 0.03 µM; in [3], 0.5 µM; in data set [4], 0.125 µM; at Topoisomerase IV it was 0.5 µM. The MIC in the data set on Staphylococcus aureus [1] is 0.5 mg/L; in the data set on Escherichia coli, 1 mg/L; with Pseudomonas aeruginosa, more than 8 mg/L; in the data set on Streptococcus pneumoniae, 0.06 mg/L; with Staphylococcus aureus [2] it was 0.03 mg/L.

Turning to `COc1ccc2nccc([C@@H](O)[C@H](O)[C@H]3CC[C@H](NCc4ccc5c(n4)NC(=O)CS5)CO3)c2n1`, the inhibition at 0.05 h, 10 µM at hERG (KCNH2) is 45%. Besides, the 50% inhibitory concentration (IC50) at DNA gyrase is 0.125 µM; in [3], 8 µM; in data set [4], 0.125 µM; at Topoisomerase IV it was more than 8 µM. Further, the MIC was more than 8 mg/L in the data set on Staphylococcus aureus [1]; 4 mg/L in the data set with Escherichia coli; more than 8 mg/L with Pseudomonas aeruginosa; 0.5 mg/L in the data set on Streptococcus pneumoniae; 0.5 mg/L with Staphylococcus aureus [2].

As to `COc1ccc2nccc([C@H](O)[C@@H](O)[C@@H]3CC[C@@H](NCc4ccc5c(n4)NC(=O)CS5)CO3)c2n1`, the inhibition at 0.05 h, 10 µM against hERG (KCNH2) is 93%. The IC50 on DNA gyrase is 0.5 µM; in data set [3], 8 µM; in data set [4], 0.125 µM; on Topoisomerase IV it was more than 8 µM. The MIC was more than 8 mg/L with Staphylococcus aureus [1]; more than 8 mg/L in the data set with Escherichia coli; more than 8 mg/L with Pseudomonas aeruginosa; 1 mg/L in the data set on Streptococcus pneumoniae; 1 mg/L in the data set on Staphylococcus aureus [2].

The compound `COc1ccc2nccc([C@H](O)[C@@H](O)[C@H]3CC[C@H](NCc4ccc5c(n4)NC(=O)CS5)CO3)c2n1` registered an inhibition at 0.05 h, 10 µM against hERG (KCNH2) of 70%. Further, the IC50 at DNA gyrase is 0.03 µM; in data set [3], 0.5 µM; in data set [4], 0.125 µM; at Topoisomerase IV, 8 µM. For the same compound, the minimum inhibitory concentration (MIC) is 0.5 mg/L in the data set with Staphylococcus aureus [1]; 1 mg/L in the data set with Escherichia coli; more than 8 mg/L with Pseudomonas aeruginosa; 0.03 mg/L in the data set with Streptococcus pneumoniae; 0.03 mg/L with Staphylococcus aureus [2].

Take `COc1ccc2cccc([C@@H](O)[C@H](O)[C@@H]3CC[C@@H](NCc4ccc5c(n4)NC(=O)CS5)CO3)c2n1`: the inhibition at 0.05 h, 10 µM against hERG (KCNH2) is 72%. The IC50 on DNA gyrase was 0.03 µM; in data set [3] it was 0.125 µM; in [4], 0.125 µM; on Topoisomerase IV it was 0.5 µM. Further, the MIC was 0.25 mg/L with Staphylococcus aureus [1]; 2 mg/L with Escherichia coli; more than 8 mg/L in the data set on Pseudomonas aeruginosa; 0.06 mg/L in the data set with Streptococcus pneumoniae; 0.03 mg/L with Staphylococcus aureus [2].

`COc1cnc2ccc(F)c([C@@H](O)[C@H](O)[C@@H]3CC[C@@H](NCc4ccc5c(n4)NC(=O)CS5)CO3)c2n1`: the inhibition at 0.05 h, 10 µM at hERG (KCNH2) came to 44%. The IC50 on DNA gyrase was 0.03 µM; in data set [3], 0.5 µM; in [4] it was 0.125 µM; at Topoisomerase IV it was 2 µM. In addition, the MIC is 1 mg/L in the data set with Staphylococcus aureus [1]; 4 mg/L with Escherichia coli; more than 8 mg/L in the data set on Pseudomonas aeruginosa; 0.5 mg/L with Streptococcus pneumoniae; 0.06 mg/L with Staphylococcus aureus [2].

On hERG (KCNH2), `COc1ccc2nccc(OC[C@@H]3CC[C@@H](NCc4ccc5c(n4)NC(=O)CS5)CO3)c2n1` gave an inhibition at 0.05 h, 10 µM of 70%. The IC50 amounted to 0.125 µM on DNA gyrase, 2 µM in data set [3] and 8 µM at Topoisomerase IV. The MIC with Staphylococcus aureus [1] is 4 mg/L; with Escherichia coli it was 4 mg/L; with Pseudomonas aeruginosa it was more than 8 mg/L; in the data set on Streptococcus pneumoniae, 0.25 mg/L; in the data set on Staphylococcus aureus [2], 0.5 mg/L.

At hERG (KCNH2), `COc1ccc2nccc(OC[C@@H]3CC[C@@H](NCc4cc5c(cn4)OCCO5)CO3)c2n1` showed an inhibition at 0.05 h, 10 µM of 19%. The concentration for half-maximal inhibition (IC50) was 0.5 µM on DNA gyrase, more than 8 µM in [3] and more than 8 µM on Topoisomerase IV. Also, the MIC with Staphylococcus aureus [1] was more than 8 mg/L; in the data set on Escherichia coli it was more than 8 mg/L; in the data set on Pseudomonas aeruginosa, more than 8 mg/L; in the data set on Streptococcus pneumoniae, 4 mg/L; with Staphylococcus aureus [2], 2 mg/L.

Take `COc1ccc2nccc(NC(=O)[C@@H]3CC[C@@H](NCc4ccc5c(n4)NC(=O)CS5)CO3)c2n1`: on hERG (KCNH2), the inhibition at 0.05 h, 10 µM came to 99%. For the same compound, the IC50 is 0.125 µM on DNA gyrase, 0.5 µM in [3] and 2 µM on Topoisomerase IV. Further, the MIC is more than 8 mg/L in the data set on Staphylococcus aureus [1]; more than 8 mg/L with Escherichia coli; more than 8 mg/L in the data set with Pseudomonas aeruginosa; 0.5 mg/L in the data set with Streptococcus pneumoniae; 0.25 mg/L in the data set on Staphylococcus aureus [2].

Consider `COc1ccc2nccc(NC(=O)[C@@H]3CC[C@@H](NCc4cc5c(cn4)OCCO5)CO3)c2n1`, for which, on hERG (KCNH2), the inhibition at 0.05 h, 10 µM was 71%. The IC50 is 0.125 µM on DNA gyrase, more than 8 µM in data set [3] and more than 8 µM on Topoisomerase IV. Further, the MIC with Staphylococcus aureus [1] was more than 8 mg/L; in the data set with Escherichia coli, more than 8 mg/L; with Pseudomonas aeruginosa it was more than 8 mg/L; in the data set on Streptococcus pneumoniae it was 0.25 mg/L; with Staphylococcus aureus [2], 0.125 mg/L.

In turn, `COc1ccc2nccc(C(O)C[C@@H]3CC[C@@H](NCc4cc5c(cn4)OCCO5)CO3)c2n1` (mixture of isomers) returned an inhibition at 0.05 h, 10 µM at hERG (KCNH2) of 66%. Moreover, the values for the IC50 (on DNA gyrase; in data set [3]; on Topoisomerase IV) were 0.125 µM, more than 8 µM and more than 8 µM, respectively. The minimal inhibitory concentration (MIC) in the data set on Staphylococcus aureus [1] is more than 8 mg/L; in the data set with Escherichia coli, more than 8 mg/L; with Pseudomonas aeruginosa it was more than 8 mg/L; in the data set with Streptococcus pneumoniae it was 0.125 mg/L; with Staphylococcus aureus [2], 0.03 mg/L.
